The text below walks through data of PubChem BioAssay (NCI).

SMILES strings stand for the structures. “And” between values parts separate entries of the source, which are not always exact repeats. Equal entries are not always repeated.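 All cell lines were grown in 96-well plates and treated with compound for 48 hours. GI50 = concentration required for 50% inhibition of growth. Definition used: TGI = concentration required for complete inhibition of growth.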

One experiment concerns HL-60(TB) leukemia. The experiment can be described thus: growth of human tumour cells (NCI), 48 h.
On to `COCCOC1=C(Cl)C(=O)c2ccccc2C1=O`, for which the GI50 was 1.58 µM and the TGI worked out at 4.87 µM.

For `CCN(CC)c1ccc2nc3ccc(=[N+](CC)CC)cc-3oc2c1`, the GI50 was 0.0247 µM and the TGI was 1.2 µM.

Consider `CN1CCN(c2c(F)cc(NC3=C(Cl)C(=O)c4ncccc4C3=O)cc2F)CC1`, for which the GI50 is 1.33 µM and the TGI amounted to 4.99 µM.

Regarding `COc1cc2nnc3c4cccnc4[nH]c3c2cc1OC`, the GI50 is 0.111 µM and the TGI was 50 µM.

Take `O=NN(CCCl)C(=O)NC1CCC(CC(=O)O)CC1` (configuration not stated): the TGI is greater than 100 µM.

`NNC(=O)C(=O)NN=C(C(Cl)(Cl)CO)C(Cl)(Cl)CO` had a TGI of 69.6 µM.

As for `CCOC(=O)/C(=C\c1cccc(C)c1)C(C)=O`, the TGI turned out to be 32.2 µM.

As to `COc1ccc2ccccc2c1C1=NC(C)(C)CO1`, the TGI was greater than 100 µM.

In the case of `COC12C(COC(=O)NCCO)C3=C(C(=O)C(C)=C(N)C3=O)N1CC1NC12` (configuration not stated), the TGI is greater than 264 µM.

For `Nc1nccc(-c2c(-c3ccc(F)cc3)nn3cc(C(F)(F)F)ccc23)n1`, the GI50 was greater than 25 µM and the TGI was greater than 25 µM.

`O=C(CCCC(=O)Nc1ccc(Cl)cc1Cl)CC(=O)c1ccc2ccccc2c1` gave a TGI greater than 100 µM.

Another experiment deals with SF-539 CNS. The experiment can be described thus: growth of human tumour cells (NCI), 48 h.
Compound `COC(=O)C1=C(C(=O)OC)C2(c3ccccc3)OC1(c1ccccc1)c1cc3ccccc3cc12` had a TGI of 3.03 µM.

`CC1NOC(=O)C1N=Nc1ccc(Cl)cc1Cl` (configuration not stated) had a TGI greater than 100 µM.

In the case of `Cc1cc(Cl)nc(N(CCNc2ccnc3cc(Cl)ccc23)Cc2ccco2)n1`, the GI50 was 1.87 µM and the TGI was 3.48 µM.

`CCCCCCCCCCCC[C@@H](O)[C@H]1CC[C@H]([C@H](O)CC[C@H](O)[C@@H]2CC[C@@H](CCCCCCCC3=C[C@H](C)OC3=O)O2)O1` returned a TGI greater than 50 µM.

For the compound `O=C(c1cccs1)c1c(C(F)(F)F)n([O-])c2cc(Cl)c(Cl)cc2[n+]1=O`, the GI50 is 0.719 µM and the TGI was found to be 1.94 µM.

Regarding `CCOC(=O)/C(=C/c1ccccn1)C(=O)c1ccccc1`, the TGI was found to be 31 µM.

For `C=CCN(CC=C)C(=O)c1cc(C)nc2c1c(=O)n(-c1ccccc1)c(=O)n2CCCN1CCN(c2ccccc2OC)CC1`, the GI50 was greater than 50 µM and the TGI is greater than 50 µM.

Turning to `COc1cc(-c2nccc3[nH]c(-c4ccc5cc[nH]c5c4)nc23)cc(OC)c1OC`, the GI50 was less than 0.01 µM and the TGI is less than 0.01 µM.

Take `COCCOC1=C(Cl)C(=O)c2ccccc2C1=O`: the GI50 is 2.52 µM and the TGI came out at 5.79 µM.

For the compound `CCN(CC)c1ccc2nc3ccc(=[N+](CC)CC)cc-3oc2c1`, the GI50 is 0.286 µM and the TGI was 18.1 µM.

With `CN1CCN(c2c(F)cc(NC3=C(Cl)C(=O)c4ncccc4C3=O)cc2F)CC1`, the GI50 was 15.7 µM and the TGI came to 29.1 µM.

As to `COc1cc2nnc3c4cccnc4[nH]c3c2cc1OC`, the GI50 is 2.79 µM and 1.73 µM; the TGI was 11.4 µM and 3.52 µM.

On to `O=NN(CCCl)C(=O)NC1CCC(CC(=O)O)CC1` (configuration not stated), for which the TGI was greater than 100 µM.

Take `NNC(=O)C(=O)NN=C(C(Cl)(Cl)CO)C(Cl)(Cl)CO`: the TGI came out at 61.2 µM.

For `CCOC(=O)/C(=C\c1cccc(C)c1)C(C)=O`, the TGI came out at 40.3 µM.

`COc1ccc2ccccc2c1C1=NC(C)(C)CO1` had a TGI greater than 100 µM.

`COC12C(COC(=O)NCCO)C3=C(C(=O)C(C)=C(N)C3=O)N1CC1NC12` (configuration not stated): the GI50 was 13.9 µM and the TGI came out at 98.7 µM.

Regarding `Nc1nccc(-c2c(-c3ccc(F)cc3)nn3cc(C(F)(F)F)ccc23)n1`, the GI50 was greater than 25 µM and the TGI was greater than 25 µM.

Regarding `O=C(CCCC(=O)Nc1ccc(Cl)cc1Cl)CC(=O)c1ccc2ccccc2c1`, the TGI was greater than 100 µM.

The next experiment concerns NCI-H23 lung. The experiment can be described thus: growth of human tumour cells (NCI), 48 h.
As for `COC(=O)C1=C(C(=O)OC)C2(c3ccccc3)OC1(c1ccccc1)c1cc3ccccc3cc12`, the TGI is 4.48 µM.

Turning to `CC1NOC(=O)C1N=Nc1ccc(Cl)cc1Cl` (configuration not stated), the TGI stood at 64.2 µM.

As for `Cc1cc(Cl)nc(N(CCNc2ccnc3cc(Cl)ccc23)Cc2ccco2)n1`, the GI50 is 2.57 µM and the TGI turned out to be 9.65 µM.

As for `CCCCCCCCCCCC[C@@H](O)[C@H]1CC[C@H]([C@H](O)CC[C@H](O)[C@@H]2CC[C@@H](CCCCCCCC3=C[C@H](C)OC3=O)O2)O1`, the GI50 was 0.164 µM and the TGI was greater than 50 µM.

In the case of `O=C(c1cccs1)c1c(C(F)(F)F)n([O-])c2cc(Cl)c(Cl)cc2[n+]1=O`, the GI50 was 0.919 µM and the TGI amounted to 2.37 µM.

On to `CCOC(=O)/C(=C/c1ccccn1)C(=O)c1ccccc1`, for which the TGI turned out to be 30.5 µM.

With `C=CCN(CC=C)C(=O)c1cc(C)nc2c1c(=O)n(-c1ccccc1)c(=O)n2CCCN1CCN(c2ccccc2OC)CC1`, the GI50 was greater than 50 µM and the TGI is greater than 50 µM.

For `COc1cc(-c2nccc3[nH]c(-c4ccc5cc[nH]c5c4)nc23)cc(OC)c1OC`, the GI50 was less than 0.01 µM and the TGI turned out to be 4.2 µM.

`COCCOC1=C(Cl)C(=O)c2ccccc2C1=O`: the GI50 was 3.24 µM and the TGI worked out at 13.5 µM.

With `CCN(CC)c1ccc2nc3ccc(=[N+](CC)CC)cc-3oc2c1`, the GI50 was 0.097 µM and the TGI came out at 1.27 µM.

For `CN1CCN(c2c(F)cc(NC3=C(Cl)C(=O)c4ncccc4C3=O)cc2F)CC1`, the GI50 is 11.8 µM and the TGI was found to be 32 µM.

Regarding `COc1cc2nnc3c4cccnc4[nH]c3c2cc1OC`, the GI50 was 11.1 µM and 2.34 µM; the TGI is 40.5 µM and 6.71 µM.

Turning to `O=NN(CCCl)C(=O)NC1CCC(CC(=O)O)CC1` (configuration not stated), the TGI was greater than 100 µM.

`NNC(=O)C(=O)NN=C(C(Cl)(Cl)CO)C(Cl)(Cl)CO` returned a TGI of 92.9 µM.

The compound `CCOC(=O)/C(=C\c1cccc(C)c1)C(C)=O` returned a TGI of 39 µM.

Take `COc1ccc2ccccc2c1C1=NC(C)(C)CO1`: the TGI was greater than 100 µM.

Turning to `COC12C(COC(=O)NCCO)C3=C(C(=O)C(C)=C(N)C3=O)N1CC1NC12` (configuration not stated), the GI50 was 10.3 µM; the TGI is 22.7 µM and 51.3 µM.
